Experimental data published in patent US10030020B2, “Spirocycle compounds and methods of making and using same” (Abide Therapeutics, Inc., priority 2016, dated 2018).

Assays:
[1] = target: T1, MAGL (Mus musculus (Mouse), UniProt O35678); assay: In vitro competitive activity-based protein profiling (mouse brain membrane fraction or cell lysates), MAGL band; assay type: biochemical; conditions: mouse proteome; for inhibition at 1 µM: read-out: MAGL % Inh 1 μM (mouse); for IC50: competitive ABPP
Description: In Vitro Competitive Activity-Based Protein Profiling.
Proteomes (mouse brain membrane fraction or cell lysates) (50 μL, 1.0 mg/mL total protein concentration) were preincubated with varying concentrations of inhibitors at 37° C. After 30 min, FP—Rh (1.0 μL, 50 μM in DMSO) was added and the mixture was incubated for another 30 min at 37° C. Reactions were quenched with SDS loading buffer (50 μL-4×) and run on SDS-PAGE.

[2] = target: T2, ABHD6 (Mus musculus (Mouse), UniProt Q8R2Y0); assay: In vitro competitive activity-based protein profiling (mouse brain membrane fraction or cell lysates), ABHD6 band; assay type: biochemical; conditions: mouse proteome; for inhibition at 1 µM: read-out: ABHD6 % Inh 1 μM (mouse); for IC50: competitive ABPP
T2 sequence (Q8R2Y0 whole entry): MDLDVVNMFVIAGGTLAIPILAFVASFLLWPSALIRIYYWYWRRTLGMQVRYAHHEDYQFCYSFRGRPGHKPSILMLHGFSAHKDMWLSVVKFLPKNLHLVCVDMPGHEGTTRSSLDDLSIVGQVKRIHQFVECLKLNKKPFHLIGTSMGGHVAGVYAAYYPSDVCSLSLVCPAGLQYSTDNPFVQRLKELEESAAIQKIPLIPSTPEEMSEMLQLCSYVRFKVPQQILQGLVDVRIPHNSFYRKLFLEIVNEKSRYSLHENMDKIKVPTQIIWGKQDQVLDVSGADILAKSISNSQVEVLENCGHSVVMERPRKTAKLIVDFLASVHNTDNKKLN
Method in brief: (§1)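 Mouse proteome samples (brain membrane fraction or cell lysate, 1.0 mg/mL protein) were pretreated with varying inhibitor concentrations and subsequently probed with fluorophosphonate-rhodamine, each step lasting 30 min at 37° C. Labelled proteins were separated by SDS-PAGE, and band fluorescence was imaged and quantified.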

[3] = target: T3, FAAH (Mus musculus (Mouse), UniProt O08914); assay: In vitro competitive activity-based protein profiling (mouse brain membrane fraction or cell lysates), FAAH band; assay type: biochemical; conditions: mouse proteome; for inhibition at 1 µM: read-out: FAAH % Inh 1 μM (mouse); for IC50: competitive ABPP
T3 sequence (O08914 whole entry): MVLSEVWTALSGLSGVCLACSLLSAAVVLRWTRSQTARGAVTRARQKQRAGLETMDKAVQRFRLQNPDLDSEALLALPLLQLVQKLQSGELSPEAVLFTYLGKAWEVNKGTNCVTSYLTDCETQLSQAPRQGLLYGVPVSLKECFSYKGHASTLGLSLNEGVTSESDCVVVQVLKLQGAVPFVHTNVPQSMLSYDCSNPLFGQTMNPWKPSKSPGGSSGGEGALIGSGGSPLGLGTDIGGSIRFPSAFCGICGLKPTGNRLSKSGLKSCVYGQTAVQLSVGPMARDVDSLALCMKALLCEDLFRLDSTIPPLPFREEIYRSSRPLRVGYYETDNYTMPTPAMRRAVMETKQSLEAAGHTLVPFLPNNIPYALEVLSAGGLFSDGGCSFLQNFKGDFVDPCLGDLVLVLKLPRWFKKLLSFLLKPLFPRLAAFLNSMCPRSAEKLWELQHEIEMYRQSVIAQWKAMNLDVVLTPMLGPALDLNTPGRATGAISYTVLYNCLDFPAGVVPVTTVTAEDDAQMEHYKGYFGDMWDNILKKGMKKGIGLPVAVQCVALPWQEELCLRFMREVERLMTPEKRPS
Method in brief: as §1

[4] = target: MAGL (Homo sapiens (Human), UniProt Q99685); assay: In vitro competitive activity-based protein profiling (human prefrontal cortex or cell membrane fractions; hMAGL expressed in HEK293T cells); assay type: biochemical; conditions: human proteome, competitive ABPP
Sequence of MAGL (Homo sapiens (Human), UniProt Q99685) (Q99685 whole entry): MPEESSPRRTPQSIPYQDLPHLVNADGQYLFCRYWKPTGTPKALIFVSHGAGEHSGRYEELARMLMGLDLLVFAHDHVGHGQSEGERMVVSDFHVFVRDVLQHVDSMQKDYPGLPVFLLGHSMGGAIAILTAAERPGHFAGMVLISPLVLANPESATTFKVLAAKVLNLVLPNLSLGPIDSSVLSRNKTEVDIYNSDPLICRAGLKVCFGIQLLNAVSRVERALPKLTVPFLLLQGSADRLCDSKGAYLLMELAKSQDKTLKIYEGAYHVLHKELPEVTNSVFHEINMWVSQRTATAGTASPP
Description: In Vitro Competitive Activity-Based Protein Profiling (Human).
Proteomes (human prefrontal cortex or cell membrane fractions) (50 μL, 1.0-2.0 mg/mL total protein concentration) were preincubated with varying concentrations of inhibitors at 37° C. After 30 min, FP—Rh or JW912 (1.0 μL, 50 μM in DMSO) was added and the mixture was incubated for another 30 min at room temperature. Reactions were quenched with SDS loading buffer (15 μL-4×) and run on SDS-PAGE.
Recombinant Expression of Human MAGL in HEK293T Cells.
Cell lysates were diluted with mock proteomes for use in competitive ABPP experiments.

[5] = target: T1, MAGL; assay: Mouse brain proteomes from inhibitor treated mice (oral gavage, sacrificed 4 h after administration, ABPP analysis); assay type: in vivo, mouse (C57Bl/6J); conditions: 5 mg/kg oral gavage
Method in brief: (§2)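 Mice (wild-type C57Bl/6J) receive inhibitor by oral gavage, e.g. in PEG400/Ethanol/PBS (7/2/1). Each animal is killed 4 h later. Brain proteomes are prepared and analyzed by ABPP, giving % inhibition at 5 mg/kg.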

[6] = target: T3, FAAH; assay: Mouse brain proteomes from inhibitor treated mice (oral gavage, sacrificed 4 h after administration, ABPP analysis), FAAH; assay type: in vivo, mouse (C57Bl/6J); conditions: 5 mg/kg oral gavage
Method in brief: as §2

[7] = target: T2, ABHD6; assay: Mouse brain proteomes from inhibitor treated mice (oral gavage, sacrificed 4 h after administration, ABPP analysis), ABHD6; assay type: in vivo, mouse (C57Bl/6J); conditions: 5 mg/kg oral gavage
Method in brief: as §2

T1 sequence (O35678 whole entry): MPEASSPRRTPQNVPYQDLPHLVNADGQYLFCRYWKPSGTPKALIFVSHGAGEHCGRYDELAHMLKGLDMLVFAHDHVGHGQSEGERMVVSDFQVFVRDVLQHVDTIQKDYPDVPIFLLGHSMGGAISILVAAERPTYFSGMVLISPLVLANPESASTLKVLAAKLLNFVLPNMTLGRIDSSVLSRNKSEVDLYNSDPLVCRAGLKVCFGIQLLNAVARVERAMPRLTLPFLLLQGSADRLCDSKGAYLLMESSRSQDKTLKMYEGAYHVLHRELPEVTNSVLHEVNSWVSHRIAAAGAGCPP

Structure (SMILES) | inhibition at 1 µM [1] [%] | IC50 [1] [nM] | inhibition at 1 µM [2] [%] | IC50 [2] [nM] | inhibition at 1 µM [3] [%] | IC50 [3] [nM] | IC50 [4] [nM] | FAAH % Inh 5 mg/kg (mouse) [6] | ABHD6 % Inh 5 mg/kg (mouse) [7] | MAGL % Inh 5 mg/kg (mouse) [5]
COC(=O)C1CCN(c2cc(C(F)(F)F)ccc2CN2CC3(CCN(C(=O)OC(C(F)(F)F)C(F)(F)F)CC3)CC2(C)C)CC1 [Example 53, 1,1,1,3,3,3-Hexafluoropropan-2-yl 2-(2-(4-(methoxycarbonyl)piperidin-1-yl)-4-(trifluoromethyl)benzyl)-3,3-dimethyl-2,8-diazaspiro[4.5]decane-8-carboxylate] | > 75 | 100 to 1000 | < 25 | > 1000 | < 25 | > 1000 | < 100 |  |  | 
O=C(OC(C(F)(F)F)C(F)(F)F)N1CCC2(CCCN2Cc2ccc(C(F)(F)F)cc2Oc2cccnc2)CC1 [Example 173, 1,1,1,3,3,3-Hexafluoropropan-2-yl 1-(2-(pyridin-3-yloxy)-4-(trifluoromethyl)benzyl)-1,8-diazaspiro[4.5]decane-8-carboxylate] | > 75 | < 100 | 25 to 75 | > 1000 | < 25 | > 1000 |  | # (# is <25%) | # (# is <25%) | ## (## is equal to or greater than 25% but less than 75%)
Cc1cc(CN2CCCC23CCN(C(=O)OC(C(F)(F)F)C(F)(F)F)CC3)ccc1C(F)(F)F [Example 177, 1,1,1,3,3,3-Hexafluoropropan-2-yl 1-(3-methyl-4-(trifluoromethyl)benzyl)-1,8-diazaspiro[4.5]decane-8-carboxylate] | > 75 | 100 to 1000 | 25 to 75 | > 1000 | < 25 | > 1000 |  | # (# is <25%) | # (# is <25%) | ### (### is ≥75%)
NC(=O)c1cc(CN2CCCC23CCN(C(=O)OC(C(F)(F)F)C(F)(F)F)CC3)ccc1C(F)(F)F [Example 178, 1,1,1,3,3,3-hexafluoropropan-2-yl 1-(3-carbamoyl-4-(trifluoromethyl)benzyl)-1,8-diazaspiro[4.5]decane-8-carboxylate] | > 75 | < 100 | 25 to 75 | > 1000 | < 25 | > 1000 | < 100 |  |  | 
Cc1ccc(CN2CCCC23CCN(C(=O)OC(C(F)(F)F)C(F)(F)F)CC3)cc1C(F)(F)F [Example 180, 1,1,1,3,3,3-Hexafluoropropan-2-yl 1-(4-methyl-3-(trifluoromethyl)benzyl)-1,8-diazaspiro[4.5]decane-8-carboxylate] | > 75 | < 100 | < 25 | > 1000 | < 25 | > 1000 |  | ## (## is equal to or greater than 25% but less than 75%) | ## (## is equal to or greater than 25% but less than 75%) | ### (### is ≥75%)
O=C(OC(C(F)(F)F)C(F)(F)F)N1CCC2(CCCN2Cc2ccc(C(F)(F)F)c(Cl)c2)CC1 [Example 183, 1,1,1,3,3,3-Hexafluoropropan-2-yl 1-(3-chloro-4-(trifluoromethyl)benzyl)-1,8-diazaspiro[4.5]decane-8-carboxylate] | > 75 | < 100 | 25 to 75 | > 1000 | < 25 | > 1000 |  | # (# is <25%) | # (# is <25%) | ### (### is ≥75%)
O=C(OC(C(F)(F)F)C(F)(F)F)N1CCC2(CCCN2Cc2ccc(Cl)c(C(F)(F)F)c2)CC1 [Example 184, 1,1,1,3,3,3-Hexafluoropropan-2-yl 1-(4-chloro-3-(trifluoromethyl)benzyl)-1,8-diazaspiro[4.5]decane-8-carboxylate] | > 75 | < 100 | < 25 | > 1000 | < 25 | > 1000 |  | # (# is <25%) | # (# is <25%) | ### (### is ≥75%)
CN1CCN(c2c(Cl)cccc2CN2CC3(CCN(C(=O)OC(C(F)(F)F)C(F)(F)F)CC3)CC2(C)C)CC1 [Example 189, 1,1,1,3,3,3-Hexafluoropropan-2-yl 2-(3-chloro-2-(4-methylpiperazin-1-yl)benzyl)-3,3-dimethyl-2,8-diazaspiro[4.5]decane-8-carboxylate] | > 75 | < 100 | 25 to 75 | 100 to 1000 | < 25 | > 1000 |  | # (# is <25%) | # (# is <25%) | ## (## is equal to or greater than 25% but less than 75%)
C#Cc1ccc(CN2CCCC23CCN(C(=O)OC(C(F)(F)F)C(F)(F)F)CC3)c(N2CCC(C(=O)O)CC2)c1 [Example 198, 1-{5-Ethynyl-2-[(8-{[(1,1,1,3,3,3-hexafluoropropan-2-yl)oxy]carbonyl}-1,8-diazaspiro[4.5]decan-1-yl)methyl]phenyl}piperidine-4-carboxylic acid] | > 75 |  | < 25 |  | < 25 |  | < 100 |  |  | 
O=C(O)C1CCN(c2cc(C(F)(F)F)ccc2CN2CCC3(CCN(C(=O)OC(C(F)(F)F)C(F)(F)F)CC3)C2)C1 (stereo not shown) [Example 201] | > 75 |  | ≥ 75 |  | < 25 |  | < 100 |  |  | 

The next lines start with results.

inhibition at 1 µM [1] [%] | IC50 [1] [nM] | inhibition at 1 µM [2] [%] | IC50 [2] [nM] | inhibition at 1 µM [3] [%] | IC50 [3] [nM] | IC50 [4] [nM] | FAAH % Inh 5 mg/kg (mouse) [6] | ABHD6 % Inh 5 mg/kg (mouse) [7] | Structure (SMILES) | MAGL % Inh 5 mg/kg (mouse) [5]
> 75 | < 100 | < 25 | > 1000 | < 25 | > 1000 |  | # (# is <25%) | # (# is <25%) | O=C(OC(C(F)(F)F)C(F)(F)F)N1CCC2(CCCN2Cc2cc(OC3CCOCC3)cc(C(F)(F)F)c2)CC1 [Example 170, 1,1,1,3,3,3-Hexafluoropropan-2-yl 1-(3-(tetrahydro-2H-pyran-4-yloxy)-5-(trifluoromethyl)benzyl)-1,8-diazaspiro[4.5]decane-8-carboxylate] | ## (## is equal to or greater than 25% but less than 75%)
> 75 | < 100 | < 25 | > 1000 | < 25 | > 1000 |  | # (# is <25%) | # (# is <25%) | O=C(OC(C(F)(F)F)C(F)(F)F)N1CCC2(CCCN2Cc2cc(Oc3nc4ccccc4s3)cc(C(F)(F)F)c2)CC1 [Example 172, 1,1,1,3,3,3-Hexafluoropropan-2-yl 1-(3-(benzo[d]thiazol-2-yloxy)-5-(trifluoromethyl)benzyl)-1,8-diazaspiro[4.5]decane-8-carboxylate] | # (# is <25%)
> 75 | < 100 | 25 to 75 | > 1000 | < 25 | > 1000 |  | # (# is <25%) | # (# is <25%) | O=C(OC(C(F)(F)F)C(F)(F)F)N1CCC2(CCCN2Cc2cc(Oc3cccnc3)cc(C(F)(F)F)c2)CC1 [Example 174, 1,1,1,3,3,3-Hexafluoropropan-2-yl 1-(3-(pyridin-3-yloxy)-5-(trifluoromethyl)benzyl)-1,8-diazaspiro[4.5]decane-8-carboxylate] | ## (## is equal to or greater than 25% but less than 75%)
> 75 | < 100 | < 25 | > 1000 | < 25 | > 1000 |  | # (# is <25%) | # (# is <25%) | O=C(OC(C(F)(F)F)C(F)(F)F)N1CCC2(CCCN2Cc2cc(OC3CCS(=O)(=O)CC3)cc(C(F)(F)F)c2)CC1 [Example 176, 1,1,1,3,3,3-Hexafluoropropan-2-yl 1-(3-((1,1-dioxidotetrahydro-2H-thiopyran-4-yl)oxy)-5-(trifluoromethyl)benzyl)-1,8-diazaspiro[4.5]decane-8-carboxylate] | ## (## is equal to or greater than 25% but less than 75%)
